# Data as given in US8354434B2, “Cyclourea compounds as calcium channel blockers” (Purdue Pharma L.P., priority 2006, dated 2013).
# Legend:
# [1] = molecular target: T1, N-type calcium channel (NTCC) (Homo sapiens, UniProt Q00975); assay: FLIPR calcium mobilization assay for N-type calcium channel; assay type: cell-based; conditions: calcium mobilization in vitro assay, differentiated IMR32 cells
# T1 construct: endogenous in cells; host or cells: IMR32 cells (ATCC), differentiated 8 days with dibutyryl cAMP and bromodeoxyuridine
# Description: Cell maintenance and differentiation. Unless noted otherwise, cell culture reagents were purchased from Life Technologies of Rockville, Md. IMR32 cells (American Type Culture Collection, ATCC, Manassas, Va.) were routinely cultured in growth medium consisting of minimum essential medium containing 10% fetal bovine serum (FBS, Hyclone, Logan, Utah), 100 U/mL penicillin, 100 μg/mL streptomycin, 2 mM L-glutamine, 1 mM sodium pyruvate, and 1×MEM non-essential amino acids. 80-90% confluent flasks of cells were differentiated using the following differentiation medium: Growth medium plus 1 mM dibutyryl cyclic AMP (Sigma, St. Louis, Mo.), and 2.5 μM bromodeoxyuridine (Sigma). Cells were differentiated for 8 days by replacing differentiation medium every 2-3 days.
# FLIPR Calcium Mobilization Assay for N-type Calcium Channel. One day prior to performing this assay, differentiated IMR32 cells were treated with 1×CellStripper, and seeded on poly-D-lysine-coated 96-well clear-bottom black plates (Becton Dickinson, Franklin Lakes, N.J.) at 200,000 cells/well. On the day of the assay, the cell plates were washed with IMR32 buffer (127 mM NaCl, 1 mM KCl, 2 mM MgCl2, 700 μM NaH2PO4, 5 mM CaCl2, 5 mM NaHCO3, 8 mM HEPES, 10 mM glucose, pH 7.4), then pre-stimulated with KCl and loaded as follows: 0.05 mL of IMR32 buffer, 0.05 mL of each compound tested diluted in IMR32 buffer containing 20 μM nitrendipine (Sigma), and 0.1 mL KCl dissolved in IMR32 buffer, plus Fluo-4 were added (3 μM final concentration, Molecular Probes, Eugene, Oreg.). Final test compound concentrations ranged from about 846 μM to about 17 μM, final nitrendipine concentration was 5 μM, and final KCl concentration was 90 mM. After 1 hour, the cells were washed twice with 0.05 mL of each compound tested in nitrendipine-containing IMR32 buffer (no KCl or Fluo-4), and then replaced with 0.1 mL of each compound tested in nitrendipine-containing IMR32 buffer. Plates were then transferred to a Fluorimetric Imaging Plate Reader (FLIPR^96, Molecular Devices, Inc., Sunnyvale, Calif.) for assay. The FLIPR measured basal Fluo-4 fluorescence for 315 seconds (i.e., 5 minutes and 15 seconds), then added 0.1 mL KCl agonist dissolved in IMR32 buffer and measured fluorescence for another 45 seconds. Final test compound concentrations on the cells after FLIPR read ranged from about 846 μM to about 17 μM, final nitrendipine concentration was 5 μM, and final KCl concentration was 90 mM. Data were collected over the entire time course and analyzed using Excel, Graph Pad Prism (version 3.02, Graph Pad, San Diego, Calif.), or Activity Base (version 5.1, IDBS, Parsippany, N.J.) software.
# [2] = molecular target: T2, L-type calcium channel (LTCC) (Rattus norvegicus, UniProt P22002); assay: FLIPR calcium mobilization assay for L-type calcium channel; assay type: cell-based; conditions: calcium mobilization in vitro assay, differentiated A7r5 cells
# T2 construct: differentiated A7r5 cells were trypsinized, then seeded on tissue culture treated 96-well clear-bottom black plates; endogenous in cells; host or cells: A7r5 cells (ATCC), differentiated 8 days with dibutyryl cAMP
# Description: A7r5 (ATCC) cells were maintained and routinely cultured in A7r5 growth medium consisting of Dulbecco's Modified Eagles Medium containing 10% FBS, 100 U/mL penicillin, 100 μg/mL streptomycin, 4 mM L-glutamine, and 0.15% sodium bicarbonate. 80-90% confluent flasks of cells were differentiated using the following differentiation medium: A7r5 Growth Medium plus 1 mM dibutyryl cyclic AMP (Sigma). Cells were differentiated for 8 days by replacing differentiation medium every 2-3 days.
# FLIPR Calcium Mobilization Assay for L-type Calcium Channel. One day prior to performing this assay, differentiated A7r5 cells were trypsinized, then seeded on tissue culture treated 96-well clear-bottom black plates (Becton Dickinson, Franklin Lakes, N.J.) at a dilution of 1:1 from a confluent T150 cm^2 flask. On the day of the assay, the plates were washed with A7r5 wash buffer (127 mM NaCl, 2 mM MgCl2, 700 μM NaH2PO4, 5 mM CaCl2, 5 mM NaHCO3, 8 mM HEPES, 10 mM glucose, pH 7.4), then loaded with 0.1 mL of A7r5 wash buffer containing Fluo-4 (3 μM final concentration, Molecular Probes, Eugene, Oreg.). After 1 hour, the cells were washed with 0.1 mL A7r5 wash buffer and resuspended in 0.05 mL A7r5 assay buffer that was composed of A7r5 wash buffer plus 50 μM valinomycin (Sigma). Plates were then transferred to a FLIPR^96 for assay. The FLIPR measured basal Fluo-4 fluorescence for 15 seconds, then added 0.05 mL of each compound tested diluted in A7r5 assay buffer at final concentrations ranging from about […]. Fluo-4 fluorescence was then measured for 5 minutes. 0.1 mL KCl agonist dissolved in A7r5 assay buffer was then added to the cells to produce a final concentration of 90 mM KCl, and fluorescence was measured for another 45 seconds. Data were collected over the entire time course and analyzed using Excel, Graph Pad Prism, or Activity Base software.
# T2 sequence (P22002 whole entry): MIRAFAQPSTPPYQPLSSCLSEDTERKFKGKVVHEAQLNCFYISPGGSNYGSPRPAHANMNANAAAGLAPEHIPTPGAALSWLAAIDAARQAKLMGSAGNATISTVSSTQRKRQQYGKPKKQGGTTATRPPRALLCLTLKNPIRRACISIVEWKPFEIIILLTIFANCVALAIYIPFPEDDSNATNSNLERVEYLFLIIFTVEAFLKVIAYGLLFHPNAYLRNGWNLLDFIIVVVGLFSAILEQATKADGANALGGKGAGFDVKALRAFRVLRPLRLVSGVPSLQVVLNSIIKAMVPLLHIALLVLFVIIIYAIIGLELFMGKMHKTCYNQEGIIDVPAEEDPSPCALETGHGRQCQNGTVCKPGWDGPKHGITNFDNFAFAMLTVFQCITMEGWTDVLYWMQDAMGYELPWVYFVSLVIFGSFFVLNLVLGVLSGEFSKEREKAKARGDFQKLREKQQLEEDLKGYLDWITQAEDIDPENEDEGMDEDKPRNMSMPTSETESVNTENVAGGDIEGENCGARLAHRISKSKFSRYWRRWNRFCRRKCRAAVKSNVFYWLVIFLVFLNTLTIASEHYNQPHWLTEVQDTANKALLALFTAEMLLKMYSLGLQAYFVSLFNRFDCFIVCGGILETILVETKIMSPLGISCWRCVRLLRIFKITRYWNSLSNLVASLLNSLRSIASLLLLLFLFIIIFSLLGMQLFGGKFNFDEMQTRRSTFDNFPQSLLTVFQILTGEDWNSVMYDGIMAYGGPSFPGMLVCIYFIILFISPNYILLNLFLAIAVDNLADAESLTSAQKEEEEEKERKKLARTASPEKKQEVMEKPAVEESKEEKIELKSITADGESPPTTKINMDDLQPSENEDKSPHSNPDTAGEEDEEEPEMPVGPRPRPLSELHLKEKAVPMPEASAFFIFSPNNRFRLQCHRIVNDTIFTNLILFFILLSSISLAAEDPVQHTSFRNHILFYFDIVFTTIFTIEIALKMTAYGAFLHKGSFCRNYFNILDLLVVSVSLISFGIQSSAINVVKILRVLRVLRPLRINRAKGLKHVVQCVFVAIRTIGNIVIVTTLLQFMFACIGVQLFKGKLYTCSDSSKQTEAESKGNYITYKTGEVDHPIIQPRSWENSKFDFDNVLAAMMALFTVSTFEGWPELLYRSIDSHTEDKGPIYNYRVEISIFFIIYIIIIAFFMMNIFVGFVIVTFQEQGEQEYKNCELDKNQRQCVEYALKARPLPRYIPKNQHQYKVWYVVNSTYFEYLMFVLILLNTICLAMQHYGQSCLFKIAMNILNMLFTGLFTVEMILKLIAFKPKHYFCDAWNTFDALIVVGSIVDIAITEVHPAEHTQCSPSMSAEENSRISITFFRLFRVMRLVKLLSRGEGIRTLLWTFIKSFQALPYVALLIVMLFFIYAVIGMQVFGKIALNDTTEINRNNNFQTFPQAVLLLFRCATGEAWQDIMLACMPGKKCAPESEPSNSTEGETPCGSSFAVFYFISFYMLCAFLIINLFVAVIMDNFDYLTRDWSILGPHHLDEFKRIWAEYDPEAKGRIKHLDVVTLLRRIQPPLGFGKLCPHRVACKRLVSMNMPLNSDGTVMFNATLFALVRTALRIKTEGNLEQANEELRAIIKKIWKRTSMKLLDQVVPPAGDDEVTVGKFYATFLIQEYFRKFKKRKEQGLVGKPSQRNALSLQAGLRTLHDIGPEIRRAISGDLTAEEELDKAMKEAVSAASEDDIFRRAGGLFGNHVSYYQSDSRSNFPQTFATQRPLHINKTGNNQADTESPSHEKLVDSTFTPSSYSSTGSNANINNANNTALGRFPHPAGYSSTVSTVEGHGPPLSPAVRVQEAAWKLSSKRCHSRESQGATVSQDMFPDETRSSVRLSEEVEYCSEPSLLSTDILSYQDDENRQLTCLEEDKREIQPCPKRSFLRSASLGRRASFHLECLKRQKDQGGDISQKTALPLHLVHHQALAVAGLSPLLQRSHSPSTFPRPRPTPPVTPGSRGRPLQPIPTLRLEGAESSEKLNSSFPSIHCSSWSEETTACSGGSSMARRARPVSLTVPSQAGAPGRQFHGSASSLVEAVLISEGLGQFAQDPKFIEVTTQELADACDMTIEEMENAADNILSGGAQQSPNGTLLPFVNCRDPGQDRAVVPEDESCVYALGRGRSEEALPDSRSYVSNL
# T2 sequence (P54287 whole entry partner): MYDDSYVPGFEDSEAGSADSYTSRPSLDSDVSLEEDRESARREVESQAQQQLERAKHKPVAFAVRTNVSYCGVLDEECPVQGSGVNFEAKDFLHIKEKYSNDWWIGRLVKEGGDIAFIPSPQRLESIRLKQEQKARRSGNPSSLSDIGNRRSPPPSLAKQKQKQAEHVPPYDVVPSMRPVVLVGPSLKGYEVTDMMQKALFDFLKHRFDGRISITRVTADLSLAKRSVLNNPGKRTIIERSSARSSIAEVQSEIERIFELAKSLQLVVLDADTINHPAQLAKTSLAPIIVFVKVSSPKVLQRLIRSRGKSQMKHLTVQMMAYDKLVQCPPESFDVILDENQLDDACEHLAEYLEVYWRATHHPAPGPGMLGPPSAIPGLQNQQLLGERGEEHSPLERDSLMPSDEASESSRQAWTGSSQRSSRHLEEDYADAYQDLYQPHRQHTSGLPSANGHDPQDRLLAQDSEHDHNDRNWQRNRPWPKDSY
# T2 sequence (P54290 25-944 partner limits assumed): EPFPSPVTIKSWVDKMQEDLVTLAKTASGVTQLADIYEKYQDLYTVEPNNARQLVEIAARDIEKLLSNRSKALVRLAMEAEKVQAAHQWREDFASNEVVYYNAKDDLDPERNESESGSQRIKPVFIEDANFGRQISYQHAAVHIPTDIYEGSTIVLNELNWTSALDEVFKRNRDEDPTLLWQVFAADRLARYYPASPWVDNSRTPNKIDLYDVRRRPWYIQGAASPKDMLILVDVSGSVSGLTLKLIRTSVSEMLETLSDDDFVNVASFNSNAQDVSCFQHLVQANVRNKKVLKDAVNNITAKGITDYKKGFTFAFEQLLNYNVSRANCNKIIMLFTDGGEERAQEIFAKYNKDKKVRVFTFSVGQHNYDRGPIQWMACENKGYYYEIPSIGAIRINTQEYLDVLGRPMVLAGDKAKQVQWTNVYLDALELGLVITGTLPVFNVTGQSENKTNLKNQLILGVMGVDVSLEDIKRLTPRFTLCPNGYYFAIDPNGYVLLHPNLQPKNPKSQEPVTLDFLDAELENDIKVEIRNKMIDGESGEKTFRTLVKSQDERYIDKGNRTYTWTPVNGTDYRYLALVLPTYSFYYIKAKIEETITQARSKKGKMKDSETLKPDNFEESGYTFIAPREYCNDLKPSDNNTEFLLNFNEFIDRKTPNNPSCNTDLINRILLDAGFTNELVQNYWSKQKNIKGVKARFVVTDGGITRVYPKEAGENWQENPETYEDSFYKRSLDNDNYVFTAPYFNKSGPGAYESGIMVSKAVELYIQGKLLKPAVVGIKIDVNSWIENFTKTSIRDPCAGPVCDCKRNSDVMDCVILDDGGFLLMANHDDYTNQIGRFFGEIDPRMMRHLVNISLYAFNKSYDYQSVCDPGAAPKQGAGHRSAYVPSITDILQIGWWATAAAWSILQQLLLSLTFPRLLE
# T2 sequence (P54290 945-1091 partner limits assumed): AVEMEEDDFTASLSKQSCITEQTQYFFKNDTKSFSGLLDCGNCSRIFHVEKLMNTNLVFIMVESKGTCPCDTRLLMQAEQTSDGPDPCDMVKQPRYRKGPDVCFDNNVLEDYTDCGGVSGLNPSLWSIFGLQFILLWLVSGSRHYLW
IC50 [1],IC50 [2],Structure (SMILES)
4.33 µM,10 to 20 µM,"O=C1N(CCC(c2ccccc2)c2ccccc2)CCN1c1ccccc1 [1-(3,3-diphenylpropyl)-3-phenylimidazolidin-2-one]"
0.81 µM,4.69 µM,"O=c1n(CCCC(c2ccc(F)cc2)c2ccc(F)cc2)c2ccccc2n1Cc1ccccn1 [1-[4,4-Bis(4-fluorophenyl)butyl]-3-(pyridin-2-yl)methyl-1,3-dihydro-benzoimidazol-2-one]"
1.19 µM,3.43 µM,"O=C1N(CCCC(c2ccc(F)cc2)c2ccc(F)cc2)CCN1Cc1ccncc1 [1-[4,4-Bis(4-fluorophenyl)butyl]-3-(pyridin-4-ylmethyl)imidazolidin-2-one]"
2.15 µM,> 20 µM,"O=c1n(CCCC(c2ccc(F)cc2)c2ccc(F)cc2)c2ccccc2n1CCN1CCCCC1 [1-[4,4-Bis(4-fluorophenyl)butyl]-3-[2-(piperidin-1-yl)ethyl]-1,3-dihydro-benzoimidazol-2-one]"
3.69 µM,,"O=C1NCCN1CCCC(c1ccc(F)cc1)c1ccc(F)cc1 [1-[4,4-Bis(4-fluorophenyl)butyl]-imidazolidin-2-one]"
1.14 µM,3.63 µM,"O=C1N(CC=Cc2ccccc2)CCN1CCCC(c1ccc(F)cc1)c1ccc(F)cc1 [1-[4,4-bis(4-fluorophenyl)butyl]-3-(3-phenylprop-2-enyl)imidazolidin-2-one]"
1.36 µM,3.56 µM,"O=C1N(CCCC(c2ccc(F)cc2)c2ccc(F)cc2)CCN1CCN1CCCC1 [1-[4,4-bis(4-fluorophenyl)butyl]-3-[2-(pyrrolidin-1-yl)ethyl]imidazolidin-2-one]"
0.62 µM,0.41 µM,"O=C1N(CCCC(c2ccc(F)cc2)c2ccc(F)cc2)CCN1C1CC1 [1-[4,4-bis(4-fluorophenyl)butyl]-3-cyclopropylimidazolidin-2-one]"
0.67 µM,0.79 µM,"CN1CCN(CCCC(c2ccc(F)cc2)c2ccc(F)cc2)C1=O [1-[4,4-bis(4-fluorophenyl)butyl]-3-methylimidazolidin-2-one]"
0.34 µM,3.29 µM,"O=C(OCc1ccccc1)N1C(=O)N(CCCC(c2ccc(F)cc2)c2ccc(F)cc2)[C@H]2C[C@H]21 [2-[4,4-Bis(4-fluorophenyl)butyl]-4-benzyloxycarbonyl-2,4-diaza-bicyclo[3.1.0]hexan-3-one]"
